“Also recorded” adds a separate entry of the source. Non-standard residues stand in square brackets, D forms with d. Residues, ends and D or L forms follow the SMILES beside them. *: point of attachment. Sta = CC(C)C[C@H](N)[C@@H](O)CC(=O)O; Isovaleryl = CC(C)CC(=O)*; 4Abz = Nc1ccc(C(=O)O)cc1; NHOH = ON*
Key:
cystatin C = assay: effect of protease inhibitors on cystatin C cleavage in CSF; type: biochemical, human; conditions: control CSF with only full length cystatin C, room temperature 48 hours; FN-439 and pepstatin A 500 ug/ml
Procedure: We incubated control CSF which contained only the full length cystatin C at room temperature for 48 hours in the presence of various protease inhibitors and monitored it for the presence of the 12.5 kD fragment.

[1] = tested on: rat mixed hippocampal cultures; assay: neuroprotection against HIV-1 Tat toxicity; type: cell-based; conditions: for protection from HIV-1 Tat toxicity: 1 hour preincubation
Description: (§1) We sought to evaluate the protective efficacy of a number of modified terpenoid compounds against the against many different neurotoxins, ranging from the chemotoxic 6-OHDA, NMDA, 3-nitropropionic acid (3-NP), and viral proteins such as Tat and gp120. Thus, we established an in vitro neuroprotection assay using rat mixed hippocampal cultures, in which we evaluated the protective efficacy of neuroprotective compounds disclosed herein. The oxidative stressor 3-NP was used to elicit toxicity in the rat hippocampal cultures to mimic the oxidative damage, reactive oxygen species production and ensuing neurodegeneration resulting from HIV infection. Another measure of neurotoxicity which results from HIV infection was evaluated by exposure of the hippocampal cultures to HIV-1 Tat (Li et al (2005), Neurotox Res, 8(1-2):119-134).
(§2) Rat mixed hippocamal neuronal cultures were generated from freshly dissected rat hippocampi (embryonic day 18) in neurobasal media containing 5% fetal bovine serum and 2% B27 supplement. The cells were plated into 96 well plates at a density of 4×10^5 cells/mL and routinely used on days 11-14 following culturing. Cell viability was assessed with MTT [3-(4,5-dimethylthiazol-2-yl)-2,5-diphenyltetrazolium bromide] assay. The MTT assay is based on the ability of a mitochondrial dehydrogenase enzyme from viable cells to cleave the tetrazolium rings of the pale yellow MTT and form dark blue formazan crystals. See Mosmann (1983), J Immunol Methods, 65(1-2):55-63. These crystals are largely impermeable to cell membranes, and thus accumulate within healthy cells. The resultant formazan precipitates are solubilized with DMSO and read on a multiwell scanning spectrophotometer (ELISA reader). The number of surviving cells is directly proportional to the level of the formazan product created.
(§3) Cultures were preincubated with GPI 1046 or Resveratrol for one hour prior to an 18 hour exposure to 3 mM 3-NP. […] The same neuroprotective compounds were evaluated for efficacy against HIV-1 Tat protein toxicity using the same 1 hour preincubation protocol.

rat neuronal cultures [2] = assay: protection against NMDA excitotoxicity; type: cell-based
Description: as §1
(§4) Rat mixed hippocamal neuronal cultures were generated from freshly dissected rat hippocampi (embryonic day 18) in neurobasal media containing 5% fetal bovine serum and 2% B27 supplement. The cells were plated into 96 well plates at a density of 4×10^5 cells/mL and routinely used on days 11-14 following culturing. Cell viability was assessed with MTT [3-(4,5-dimethylthiazol-2-yl)-2,5-diphenyltetrazolium bromide] assay. […] The resultant formazan precipitates are solubilized with DMSO and read on a multiwell scanning spectrophotometer (ELISA reader). […]

rat neuronal cultures [3] = assay: protection against 6-OHDA neurotoxicity; type: cell-based
Description: as §1, §4

[4] = tested on: human fetal neuronal cultures; assay: protection of human fetal neurons against 3-NP; type: cell-based
Description: (§5) Finally, we sought to determine if the compounds tested in rat neuronal cultures would also be effective on cultured human fetal neurons.

[5] = tested on: human fetal neuronal cultures; assay: protection of human fetal neurons against 6-OHDA; type: cell-based
Description: as §5

[6] = tested on: rat mixed hippocampal cultures; assay: in vitro neuroprotection assay against 3-NP, MTT viability; conditions: for protection from oxidative damage elicited by 3-NP: preincubated one hour prior to 18 hour exposure to 3 mM 3-NP
Description: 5, 2007. In Tables 5 and 6 “% Protection vs 3-NP” refers to the increase in cultured neuron viability in the presence of the oxidative stressor 3-nitropropionic acid. For details of the assay, see Example 3 below.
as §1, §2
Mixed hippocampal cultures were incubated with 3-NP (0.5-10 mM) for 18 hours and then assessed for viability using an MTT assay.
as §3

cathepsin B = target: T1, cathepsin B (Homo sapiens, UniProt P07858); assay: cathepsin B functional assay; type: biochemical; conditions: for inhibition of cathepsin B activity: untreated recombinant protein, or protease alone; for ability to inhibit cathepsin B after treatment of cystatin C with MMP-2: recombinant cystatin C treated with MMP-2; for cathepsin B activity after treatment of cystatin C with cathepsin D: recombinant cystatin C treated with cathepsin D
T1 construct: Cell lysates were prepared using a lysis buffer provided with the assay kit; host or cells: THP-1 cell lysate
Procedure: The activity of cathepsin B, a substrate of cystatin C, was measured using an activity assay kit (Biovision Research Products, Mountain View, Calif.). This fluorescence-based assay utilizes the cathepsin-B substrate sequence Arg-Arg labeled with amino-4-trifluoromethyl coumarin […]. Cathepsin-B cleaves the synthetic substrate RR-AFC to release free AFC. THP-1 cells (a monocytic cell line) were used as a source of cathepsin B. Cell lysates were prepared using a lysis buffer provided with the assay kit. Cell lysates from 1×10^6 cells were added to 50 μl of CSF in a microtiter plate (q.s. 100 μl). Two μl of substrate Ac-Arg-Arg-AFC was added to each well and incubated for 1 hr at 37° C. Absorbance was measured using a fluorescent plate reader with a 400 nm excitation filter and 505 nm emission filter. Controls included reaction buffer alone and a cathepsin B inhibitor provided in the kit. All samples were analyzed in duplicate.
Recombinant cystatin C was produced and the ability of MMP-2 and cathepsin D to cleave the recombinant protein was confirmed. As expected, cathepsin D cleaved cystatin C at four different sites, and yielded a 12.5 kD fragment following cleavage from the C terminal region (9). In contrast, MMP-2 cleaved cystatin C at three unique sites (GK, FC, and GT which correspond to amino acids 4,5; 96,97 and 108,109). Recombinant cystatin C was treated with either MMP-2 or cathepsin D and its activity monitored by a cathepsin B functional assay using a kit from Biovision Research Products, Mountain View, Calif. The assay was performed as previously described (4). […] Cathepsin D and MMP-2 alone had no effect on cathepsin B activity (FIG. 9). These observations confirmed that C terminal fragmentation of cystatin C leads to a gain in activity while cleavage in other regions including the N terminal region leads to a loss or decrease of activity of cystatin C.

[7] = listed as Recombinant cystatin C

CC(C)CC(=O)N[C@H](C(=O)N[C@H](C(=O)N[C@@H](CC(C)C)[C@@H](O)CC(=O)N[C@@H](C)C(=O)N[C@@H](CC(C)C)[C@@H](O)CC(=O)O)C(C)C)C(C)C [pepstatin A] (Isovaleryl-VV[Sta]A[Sta]-OH)
effect on cleavage of cystatin C (12.5 kD fragment) (cystatin C): showed inhibition of the breakdown of cystatin C; also recorded: significantly prevented cleavage of cystatin C

CC1(C)O[C@H]2CC(=O)OC[C@]23[C@H]2CC[C@@]4(C)[C@H](c5ccoc5)OC(=O)[C@H]5O[C@]54[C@]2(C)C(=O)C[C@@H]13 [Limonin]
protection from HIV-1 Tat toxicity [1]: dose dependently protected
protection against NMDA at highest dose (rat neuronal cultures [2]; 10 μM, highest dose tested): complete protection
block of NMDA neurotoxicity (rat neuronal cultures [2]; dose-dependent): dose-dependently blocked
protection against 6-OHDA at highest dose (rat neuronal cultures [3]; 10 μM, highest dose tested): complete protection
block of 6-OHDA neurotoxicity (rat neuronal cultures [3]; dose-dependent): dose-dependently blocked
protection against 3-NP [4]: dose-dependently protected
protection against 6-OHDA [5]: dose-dependently protected

CCC(C)(C)C(=O)C(=O)N1CCC[C@H]1C(=O)OCCCc1cccnc1 [GPI 1046, reference compound]
protection from oxidative damage elicited by 3-NP [6]: significantly protected
protection from HIV-1 Tat toxicity [1]: protected hippocampal neurons from Tat toxicity

CC(=O)O[C@@H]1CC2C(C)(C)C(=O)C=C[C@]2(C)C2CC[C@]3(C)[C@@H](c4ccoc4)OC(=O)[C@H]4O[C@]43[C@@]21C (stereo partly drawn) [GEDUNIN]
neuroprotection from HIV-1 Tat toxicity at 1-10 μM ([1]; 1-10 μM): nearly complete neuroprotection
protection from HIV-1 Tat toxicity [1]: dose dependently protected

Cathepsin D: protease that cleaves cystatin C from the C terminal region
inhibition of cathepsin B activity (cathepsin B): no effect

O=C(O)CC[N+](=O)[O-] [Compound 3-NP, 3-nitropropionic acid]
cytotoxicity ([6]; 3 mM 3-NP, 18 hours, MTT assay): 25-35%

Oc1ccc(C=Cc2cc(O)cc(O)c2)cc1 [RESVERATROL, reference compound]
protection from oxidative damage elicited by 3-NP [6]: significantly protected
protection from HIV-1 Tat toxicity [1]: protected hippocampal neurons from Tat toxicity

C[C@@H]1[C@H](O)[C@@H](C)/C=C/C=C/CC/C=C/C=C/C=C/C=C/C(O[C@H]2O[C@H](C)[C@@H](O)[C@H](N)[C@@H]2O)CC2O[C@](O)(CC(O)C(O)CCC(O)CC(O)CC(O)CC(=O)O[C@H]1C)CC(O)C2C(=O)O (stereo partly drawn) [NYSTATIN]
% Protection vs 3NP ([6]; increase in cultured neuron viability in the presence of 3-nitropropionic acid (Table 6)): 46.72%

CC(C)C[C@@H](NC(=O)[C@@H]1CCCN1C(=O)CNC(=O)c1ccc(N)cc1)C(=O)N[C@H](C)C(=O)NO [FN-439] (H-[4Abz]GP[dL][dA]-{NHOH})
effect on cleavage of cystatin C (12.5 kD fragment) (cystatin C): showed inhibition of the breakdown of cystatin C

B1: full length cystatin C: recombinant cystatin C, inhibitor of cysteine proteases including cathepsin B (protein)
chain: SSPGKPPRLVGGPMDASVEEEGVRRALDFAVGEYNKASNDMYHSRALQVVRARKQIVAGVNYFLDVELGRTTCTKTQPNLDNCPFHDQPHLKRKAFCSFQIYAVPWQGTMTLSKSTCQDA
ability to inhibit cathepsin B after treatment of cystatin C with MMP-2 (cathepsin B; [7]): inhibition of CysC activity
ability to inhibit cathepsin B after treatment of cystatin C with MMP-2 (cathepsin B; listed as cystatin C): decrease in its ability to inhibit cathepsin B activity
cathepsin B activity after treatment of cystatin C with cathepsin D (cathepsin B; [7]): further enhanced
cathepsin B activity after treatment of cystatin C with cathepsin D (cathepsin B; listed as cystatin C): further decrease in cathepsin B activity
inhibition of cathepsin B activity (cathepsin B): significant inhibition

B2: MMP-2: matrix metalloprotease that cleaved cystatin C at three sites (protein)
chain: YNFFPRKPKWDKNQITYRIIGYTPDLDPETVDDAFARAFQVWSDVTPLRFSRIHDGEADIMINFGRWEHGDGYPFDGKDGLLAHAFAPGTGVGGDSHFDDDELWTLGEGQVVRVKYGNADGEYCKFPFLFNGKEYNSCTDTGRSDGFLWCSTTYNFEKDGKYGFCPHEALFTMGGNAEGQPCKFPFRFQGTSYDSCTTEGRTDGYRWCGTTEDYDRDKKYGFCPETAMSTVGGNSEGAPCVFPFTFLGNKYESCTSAGRSDGKMWCATTANYDDDRKWGFCPDQGYSLFLVAAHEFGHAMGLEHSQDPGALMAPIYTYTKNFRLSQDDIKGIQELYGASPDIDLGTGPTPTLGPVTPEICKQDIVFDGIAQIRGEIFFFKDRFIWRTVTPRDKPMGPLLVATFWPELPEKIDAVYEAPQEEKAVFFAGNEYWIYSASTLERGYPKPLTSLGLPPDVQRVDAAFNWSKNKKTYIFAGDKFWRYNEVKKKMDPGFPKLIADAWNAIPDNLDAVVDLQGGGHSYFFKGAYYLKLENQSLKSVKFGSIKSDWLGC
inhibition of cathepsin B activity (cathepsin B): no effect
